Results as given in ChEMBL document CHEMBL5257051, “Integrasone Derivatives Isolated from Lepteutypa sp. KT4162 and Their Anti-HIV-1 Integrase Activity” (J Nat Prod, 2023).

Key:
[1] = Inhibition of HIV-1 Integrase transfected in human HEK293T cells measured after 48 hrs by bright-glo luciferase assay; assay type: cell-based; details: Human immunodeficiency virus 1, HEK-293T
[2] = Cytotoxicity against human HEK293T cells assessed as cell growth inhibition measured for 30 mins by WST assay; assay type: toxicity, cell-based, HEK-293T
[3] = Inhibition of HIV-1 Integrase transfected in human HEK293T cells measured after 48 hrs by luminometer analysis; assay type: cell-based, Human immunodeficiency virus 1
[4] = Cytotoxicity against human HEK293T cells assessed as cell growth inhibition by MTT assay; assay type: toxicity, cell-based, HEK-293T

Structure (SMILES)	IC50 [1] [µM]	IC50 [3] [µM]	CC50 at 0.5 h [2] [µM]	CC50 [4] [µM]
CCCCCCCCC(=O)C[C@H]1OCC2=C1[C@@H](O)[C@@H]1O[C@@H]1[C@@H]2O	95		> 250	
CCCCCCCCC(=O)C[C@H]1OC(=O)C2=C1[C@@H](O)[C@@H]1O[C@@H]1[C@@H]2O	56		> 250	
O=C(CCCCCCCCO)C[C@H]1OCC2=C1[C@@H](O)[C@@H]1O[C@@H]1[C@@H]2O	112		> 250	
COc1cc2c(cc1Cc1cccc(Cl)c1F)c(=O)c(C(=O)O)cn2[C@H](CO)C(C)C [ELVITEGRAVIR]		3.8		> 250

Further lines, with some results ahead:

IC50 [1] [µM]	IC50 [3] [µM]	Structure (SMILES)	CC50 at 0.5 h [2] [µM]	CC50 [4] [µM]
40		CCCCCCCCC(=O)Cc1occ2c1[C@@H](O)[C@@H]1O[C@@H]1[C@@H]2O	> 250	
2.5		CCCCCCCCC(=O)C[C@@H]1OC(=O)C2=C1[C@@H](O)[C@@H]1O[C@@H]1[C@@H]2O	> 250	
